The source of these data is US9656971B2, “COMT inhibitors” (Hoffmann-La Roche Inc., priority 2012, dated 2017).

Broadly, the pIC50 is the negative decadic logarithm of the IC50, by convention in mol/L.

For this experiment, the target named is T1, Rec. human COMT (Homo sapiens, UniProt P21964).
T1 sequence (P21964 1-271): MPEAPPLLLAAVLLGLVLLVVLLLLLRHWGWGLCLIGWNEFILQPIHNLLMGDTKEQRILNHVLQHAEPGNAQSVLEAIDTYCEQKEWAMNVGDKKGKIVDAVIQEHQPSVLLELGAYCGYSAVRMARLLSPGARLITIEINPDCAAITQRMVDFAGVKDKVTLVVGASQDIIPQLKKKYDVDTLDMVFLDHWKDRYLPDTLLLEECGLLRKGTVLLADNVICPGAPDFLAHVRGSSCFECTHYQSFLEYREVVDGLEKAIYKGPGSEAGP
The experiment in a line: COMT-Fluorescence Assay. The format is biochemical. Conditions: rec. human COMT 25 nM, 4-Nitrocatechol-Alexa488 200 nM, SAM 500 nM. Here is the method:
This intramolecular interaction is disturbed if the 4-Nitrocatechol is methylated. […] This increase of fluorescence intensity can be followed in a kinetic measurement. The slope in the linear range of the kinetic is calculated. An inhibitor compound decreases the slope.
Signal [rfu/min]=(rfu(end-point)−rfu(startpoint))/incubation_time_#2

The mark [1] stands for this setting: COMT-fluorescence assay, read-out: IC50.

Molecules are shown by their SMILES. pIC50: −log10 of the molar value. Where a name gives a salt, the structure may show the parent alone. Read-outs that look alike come from different tables or passages of the source.

`O=c1[nH]cnc2c(O)cc(-c3cscn3)cc12` [Example 91, 8-Hydroxy-6-(thiazol-4-yl)quinazolin-4(3H)-one]: the pIC50 under setting [1] was 7.00. Still for that read-out and setting: in the case of `O=c1[nH]cnc2c(O)cc(-c3cccc4ccccc34)cc12` [Example 170, 8-Hydroxy-6-(naphthalen-1-yl)quinazolin-4(3H)-one] it was 7.70; in that of `Cc1ccc(-c2c(-c3ccc(F)cc3)c(Br)c(O)c3nc[nH]c(=O)c23)cc1` [Example 51, 7-bromo-6-(4-fluorophenyl)-8-hydroxy-5-p-tolylquinazolin-4(3H)-one], 6.59; in that of `Cc1c(-c2cc(O)c3nc[nH]c(=O)c3c2)cnn1-c1ccccc1` [Example 204, 8-Hydroxy-6-(5-methyl-1-phenyl-1H-pyrazol-4-yl)quinazolin-4(3H)-one], 7.70. Same read-out and setting: the result for `N#Cc1ccc(Cl)c(-c2cc(O)c3nc[nH]c(=O)c3c2)c1` [Example 27, 4-Chloro-3-(8-hydroxy-4-oxo-3,4-dihydroquinazolin-6-yl)benzonitrile] reads 7.40. As to `O=c1[nH]cnc2c(O)c(Cl)c(-c3ccc(F)cc3)cc12` [Example 245, 7-Chloro-6-(4-fluorophenyl)-8-hydroxyquinazolin-4(3H)-one], under setting [1], the pIC50 was 6.14. Regarding `O=c1[nH]cnc2c(O)cc(-c3ccccc3COCCC3CCN(CC(F)(F)F)CC3)cc12` [Example 118, 8-Hydroxy-6-(2-((2-(1-(2,2,2-trifluoroethyl)piperidin-4-yl)ethoxy)methyl)phenyl)quinazolin-4(3H)-one 2,2,2-trifluoroacetate], under setting [1], the pIC50 is 8.00.

Regarding `COCc1nc(C)sc1-c1cc(O)c2nc[nH]c(=O)c2c1` [Example 46, 8-Hydroxy-6-(4-(methoxymethyl)-2-methylthiazol-5-yl)quinazolin-4(3H)-one], under setting [1], the negative-log IC50 (pIC50) was 8.00. On the same count and under the same terms, in the case of `O=c1[nH]cnc2c(O)cc(-c3cncnc3)cc12` [Example 153, 8-Hydroxy-6-(pyrimidin-5-yl)quinazolin-4(3H)-one 2,2,2-trifluoroacetate] it was 6.72. With `CN1CCc2cc(-c3cc(O)c4nc[nH]c(=O)c4c3)ccc21` [Example 40, 8-Hydroxy-6-(1-methylindolin-5-yl)quinazolin-4(3H)-one 1:1 salt with trifluoroacetate], the pIC50 (IC50, COMT-fluorescence assay) is 8.00. For the compound `O=c1[nH]cnc2c(O)cc(-c3ccc(S(F)(F)(F)(F)F)cc3)cc12` [Example 100, 6-(4-Pentafluorosulfanylphenyl)-8-hydroxyquinazolin-4(3H)-one], the pIC50 under setting [1] is 7.30. For `Cc1cc(-c2c(Br)cc(O)c3nc[nH]c(=O)c23)ccn1` [Example 105, 6-Bromo-8-hydroxy-5-(2-methylpyridin-4-yl)quinazolin-4(3H)-one], under setting [1], the negative-log IC50 (pIC50) was 7.15. On the same count and under the same terms, in the case of `O=c1[nH]cnc2c(O)cc(CCc3ccccc3)cc12` [Example 16, 8-Hydroxy-6-phenethylquinazolin-4(3H)-one] it was 6.25; in that of `N#CCc1ccccc1-c1cc(O)c2nc[nH]c(=O)c2c1` [Example 208, 2-(2-(8-Hydroxy-4-oxo-3,4-dihydroquinazolin-6-yl)phenyl)acetonitrile], 7.30. Under “IC50, COMT-fluorescence assay”, `CS(=O)(=O)c1ccc(-c2cc(O)c3nc[nH]c(=O)c3c2)c(F)c1` [Example 158, 6-(2-Fluoro-4-(methylsulfonyl)phenyl)-8-hydroxyquinazolin-4(3H)-one] gave a negative-log IC50 (pIC50) of 7.52. As to `CCOC(=O)c1cc(O)c2nc[nH]c(=O)c2c1` [Example 6, Ethyl 8-hydroxy-4-oxo-3,4-dihydroquinazoline-6-carboxylate], under setting [1], the negative-log IC50 (pIC50) was 7.70.

`Cc1nc(C)c(-c2cc(O)c3nc[nH]c(=O)c3c2)s1` [Example 178, 6-(2,4-Dimethylthiazol-5-yl)-8-hydroxyquinazolin-4(3H)-one]: the pIC50 under setting [1] is 8.00.

Regarding `O=c1[nH]cnc2c(O)cc(-c3ccc(F)cc3)c(Br)c12` [Example 122, 5-Bromo-6-(4-fluorophenyl)-8-hydroxyquinazolin-4(3H)-one], under setting [1], the negative-log IC50 (pIC50) is 8.00. Still for that read-out and setting: the result for `N#Cc1ccccc1-c1cc(O)c2nc[nH]c(=O)c2c1` [Example 207, 2-(8-Hydroxy-4-oxo-3,4-dihydroquinazolin-6-yl)benzonitrile] reads 7.70; that for `O=c1[nH]cnc2c(O)cc(-c3cncs3)cc12` [Example 90, 8-Hydroxy-6-(thiazol-5-yl)quinazolin-4(3H)-one], 7.70. Consider `COCc1ccc(C(=O)N2CCN(C)CC2)cc1-c1cc(O)c2nc[nH]c(=O)c2c1` [Example 233, 8-Hydroxy-6-[2-methoxymethyl-5-(4-methyl-piperazine-1-carbonyl)-phenyl]-3H-quinazolin-4-one; compound with formic acid], for which the pIC50 under setting [1] was 5.93. On the same count and under the same terms, the result for `CN(C)S(=O)(=O)n1cnc(-c2cc(O)c3nc[nH]c(=O)c3c2)c1` [Example 77, 4-(8-Hydroxy-4-oxo-3,4-dihydroquinazolin-6-yl)-N,N-dimethyl-1H-imidazole-1-sulfonamide] reads 7.30; that for `O=c1[nH]cnc2c(O)cc(-c3ccc4c(c3)OCO4)cc12` [Example 177, 6-(Benzo[d][1,3]dioxol-5-yl)-8-hydroxyquinazolin-4(3H)-one], 7.40. Consider `COCc1cc(C(=O)N(CCN(C(C)C)C(C)C)C(C)C)ccc1-c1cc(O)c2nc[nH]c(=O)c2c1` [Example 106, N-(2-(Diisopropylamino)ethyl)-4-(8-hydroxy-4-oxo-3,4-dihydroquinazolin-6-yl)-N-isopropyl-3-(methoxymethyl)benzamide 2,2,2-trifluoroacetate], for which, under setting [1], the negative-log IC50 (pIC50) was 7.70.

In the case of `CCOc1cc(F)ccc1-c1cc(O)c2nc[nH]c(=O)c2c1` [Example 211, 6-(2-Ethoxy-4-fluorophenyl)-8-hydroxyquinazolin-4(3H)-one], the negative logarithm of the IC50 (pIC50) under setting [1] was 7.15. Still for that read-out and setting: in the case of `O=c1[nH]cnc2c(O)cc(-c3cnc4ccccn34)cc12` [Example 86, 8-Hydroxy-6-(imidazo[1,2-a]pyridin-3-yl)quinazolin-4(3H)-one] it was 7.52; in that of `O=c1[nH]cnc2c(O)ccc(Br)c12` [Example 1, 5-Bromo-8-hydroxyquinazolin-4(3H)-one], 6.30. Turning to `CCc1ccccc1-c1cc(O)c2nc[nH]c(=O)c2c1` [Example 217, 6-(2-Ethylphenyl)-8-hydroxyquinazolin-4(3H)-one], the pIC50 under setting [1] is 7.30. Still for that read-out and setting: in the case of `O=c1[nH]cnc2c(O)cc(C3CCCC3)cc12` [Example 18, 6-Cyclopentyl-8-hydroxyquinazolin-4(3H)-one] it was 6.05; in that of `O=c1[nH]cnc2c(O)c(F)cc(-c3ccc(F)cc3)c12` [Example 124, 7-Fluoro-5-(4-fluorophenyl)-8-hydroxyquinazolin-4(3H)-one], 6.70. Regarding `Cc1ccc(C(O)c2cc(O)c3nc[nH]c(=O)c3c2)cc1` (stereo not drawn) [Example 65, 8-Hydroxy-6-(hydroxy(p-tolyl)methyl)quinazolin-4(3H)-one], under setting [1], the negative-log IC50 (pIC50) is 5.32. Consider `O=c1[nH]cnc2c(O)c(F)c(-c3ccccc3)c(F)c12` [Example 38, 5,7-Difluoro-8-hydroxy-6-phenylquinazolin-4(3H)-one], for which, under setting [1], the pIC50 is 7.52. As to `CNCCc1ccccc1-c1cc(O)c2nc[nH]c(=O)c2c1` [Example 232, 8-Hydroxy-6-(2-(2-(methylamino)ethyl)phenyl)quinazolin-4(3H)-one], the pIC50 (IC50, COMT-fluorescence assay) is 6.51.
